Laboratory results as given in article PMC8400920, “Metabolism of Diterpenoids Derived from the Bark of Cinnamomum cassia in Human Liver Microsomes” (Pharmaceutics, 2021).

What was measured:
Experiment in all cases: AHC metabolism by recombinant cDNA-expressed CYP isoform
Type in all cases: in vitro ADME
Conditions in all cases: 10 µM AHC, 10 pmol recombinant CYP, NGS, 37 °C, 60 min
CYP2C9 = target: T1, CYP2C9 (Homo sapiens, UniProt P11712)
T1 construct: purchased Corning Gentest
Procedure: (§1) To identify the metabolic enzymes for AHC, 10 µM AHC was incubated with 10 pmol of human recombinant cDNA-expressed CYP isoforms (CYP1A1, 1A2, 2A6, 2B6, 2C8, 2C9, 2C19, 2D6, 2E1, 3A4, and 3A5) in the presence of 0.1 M potassium phosphate buffer (pH 7.4). The reaction was initiated by adding 100 µL of NGS at 37 °C for 60 min. Then, the mixture was suspended by adding 400 µL of ice-cold 100% ACN. Following centrifugation at 15,700× g for 10 min at 4 °C, the supernatant was transferred to a new tube and evaporated using a speed-vacuum concentrator. Next, the dried sample was diluted with 100 µL of 20% MeOH containing 0.1% formic acid, and a 5 µL aliquot was injected into a C18 column for LC–MS/MS analysis.
(§2) To identify the CYP isoforms involved in AHC metabolism, AHC (10 µM) was incubated with eleven cDNA-expressed recombinant CYP isoforms (CYP1A1, CYP1A2, CYP2A6, CYP2B6, CYP2C8, CYP2C9, CYP2C19, CYP2D6, CYP2E1, CYP3A4, and CYP3A5) in the presence of the NGS. […] However, the metabolites of AHC were not observed from reactions with other CYPs. Thus, in the metabolism of AHC in HLMs, CYP3A4 was involved as the main enzyme, and four types of metabolites were generated.

CYP1A2 = target: T2, CYP1A2 (Homo sapiens, UniProt P05177)
T2 construct: purchased Corning Gentest
T2 sequence (P05177 1-516): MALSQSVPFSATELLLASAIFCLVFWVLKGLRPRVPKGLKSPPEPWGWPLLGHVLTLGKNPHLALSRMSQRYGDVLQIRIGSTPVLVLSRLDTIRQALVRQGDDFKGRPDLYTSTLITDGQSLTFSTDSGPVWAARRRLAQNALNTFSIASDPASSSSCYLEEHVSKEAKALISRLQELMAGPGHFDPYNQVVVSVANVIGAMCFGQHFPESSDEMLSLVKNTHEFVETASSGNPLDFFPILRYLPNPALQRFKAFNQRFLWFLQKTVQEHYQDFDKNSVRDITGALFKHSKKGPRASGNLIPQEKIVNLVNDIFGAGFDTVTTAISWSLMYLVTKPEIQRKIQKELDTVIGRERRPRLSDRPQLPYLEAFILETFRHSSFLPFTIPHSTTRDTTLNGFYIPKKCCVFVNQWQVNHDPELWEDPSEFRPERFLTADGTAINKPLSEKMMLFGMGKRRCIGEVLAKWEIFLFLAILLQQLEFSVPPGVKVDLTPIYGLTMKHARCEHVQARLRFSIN
Procedure: as §1, §2

CYP1A1 = target: T3, CYP1A1 (Homo sapiens, UniProt P04798)
T3 construct: purchased Corning Gentest
T3 sequence (P04798 1-512): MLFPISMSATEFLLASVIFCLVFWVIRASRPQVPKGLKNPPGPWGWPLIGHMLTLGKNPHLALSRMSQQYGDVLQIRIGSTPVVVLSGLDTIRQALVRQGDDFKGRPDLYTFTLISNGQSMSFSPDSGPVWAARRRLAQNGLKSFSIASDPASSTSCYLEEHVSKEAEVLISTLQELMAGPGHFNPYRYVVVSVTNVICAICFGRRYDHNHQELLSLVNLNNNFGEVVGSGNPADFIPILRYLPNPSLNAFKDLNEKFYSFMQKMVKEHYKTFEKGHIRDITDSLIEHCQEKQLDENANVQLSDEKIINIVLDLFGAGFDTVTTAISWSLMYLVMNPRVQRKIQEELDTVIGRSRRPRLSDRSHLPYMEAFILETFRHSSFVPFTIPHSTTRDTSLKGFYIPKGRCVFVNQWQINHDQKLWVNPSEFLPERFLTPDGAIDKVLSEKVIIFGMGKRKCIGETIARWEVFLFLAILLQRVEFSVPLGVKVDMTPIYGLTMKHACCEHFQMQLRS
Procedure: as §1, §2

CYP2D6 = target: T4, CYP2D6 (Homo sapiens, UniProt P10635)
T4 construct: purchased Corning Gentest
T4 sequence (P10635 whole entry): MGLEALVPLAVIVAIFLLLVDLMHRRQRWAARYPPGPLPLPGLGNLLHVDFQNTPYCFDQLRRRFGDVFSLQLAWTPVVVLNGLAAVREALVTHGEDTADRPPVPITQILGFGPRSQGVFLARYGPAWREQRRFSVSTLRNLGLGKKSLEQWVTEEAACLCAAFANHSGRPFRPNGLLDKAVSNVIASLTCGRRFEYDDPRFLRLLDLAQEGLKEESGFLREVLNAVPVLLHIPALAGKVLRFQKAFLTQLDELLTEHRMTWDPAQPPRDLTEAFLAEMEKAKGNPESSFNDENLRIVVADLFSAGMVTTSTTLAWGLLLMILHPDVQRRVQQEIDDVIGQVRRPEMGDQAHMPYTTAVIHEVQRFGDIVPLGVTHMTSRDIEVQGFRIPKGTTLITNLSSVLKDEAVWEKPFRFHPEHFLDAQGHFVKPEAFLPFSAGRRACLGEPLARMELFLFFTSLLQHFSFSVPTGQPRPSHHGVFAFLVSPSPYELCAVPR
Procedure: as §1, §2

T1 sequence (P11712 whole entry): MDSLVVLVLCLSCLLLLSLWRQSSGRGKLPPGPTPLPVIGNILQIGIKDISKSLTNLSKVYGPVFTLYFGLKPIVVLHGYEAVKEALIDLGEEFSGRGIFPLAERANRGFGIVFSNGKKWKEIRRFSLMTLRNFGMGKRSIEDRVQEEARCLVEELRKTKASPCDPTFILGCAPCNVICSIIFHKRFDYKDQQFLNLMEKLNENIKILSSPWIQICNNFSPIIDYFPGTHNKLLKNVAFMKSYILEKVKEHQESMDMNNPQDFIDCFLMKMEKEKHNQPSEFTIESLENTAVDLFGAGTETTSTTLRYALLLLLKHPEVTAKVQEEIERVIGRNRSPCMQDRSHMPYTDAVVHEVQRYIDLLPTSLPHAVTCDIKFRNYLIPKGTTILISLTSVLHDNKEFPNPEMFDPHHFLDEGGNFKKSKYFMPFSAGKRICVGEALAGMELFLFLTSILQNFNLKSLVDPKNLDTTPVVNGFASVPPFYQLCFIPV

CC(=O)O[C@@H]1[C@@H](C)CC[C@]2(O)[C@]3(C)CC(=O)O[C@]12[C@@]1(O)C(C)=C(C(C)C)C[C@@]31O [AHC, anhydrocinnzeylanine]
not observed: metabolites of AHC from reaction with CYP2C9 (CYP2C9) | metabolites of AHC from reaction with CYP1A2 (CYP1A2) | metabolites of AHC from reaction with CYP1A1 (CYP1A1) | metabolites of AHC from reaction with CYP2D6 (CYP2D6)
